According to the supplement of paper PMC6965134:
± gives the standard deviation of the averaged measurements. One block for each molecule: values may come before it.

Test: TIMS collisional cross section (CCS, N2) of the lipid ion; higher = larger ion cross section
Settings: ionization mode: negative, one isomer drawn
Description: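 Lipid extracts of human plasma (NIST SRM 1950), mouse liver or HeLa cells were separated by nanoflow C18 LC (30 min gradient) and analysed by TIMS-PASEF on a timsTOF Pro. Ion mobility was calibrated with the Agilent tuning mix (negative mode ions) and converted to collisional cross sections (Mason–Schamp, N2).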
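Note: lipids from MTBE extraction, five replicate injections per sample, 100 ms TIMS ramp spanning 0.6–1.95 Vs/cm², lipid identity assigned from PASEF MS/MS spectra.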

Structure (SMILES): C=CC(=O)O[C@H](COC(=O)CCCCCCCCCCCCCCCCC)COP(=O)([O-])OCC[N+](C)(C)C [PC 18:0_3:1]
- TIMS collisional cross section (sample type: Human plasma, ion (formula + adduct): [C29H56NO8P+AcO] 1-): 252.1 Å²

Structure (SMILES): CCCCC/C=C\C/C=C\CCCCCCCCCC(=O)O[C@H](COC(=O)CCCCCCC/C=C\C/C=C\CCCCC)COP(=O)([O-])OCC[N+](C)(C)C [PC 18:2_20:2]
- TIMS collisional cross section (sample type: Human plasma, ion (formula + adduct): [C46H84NO8P+HCOO] 1-): 299.5 Å²

Structure (SMILES): CCCCCCCC/C=C\CCCCCCCC(=O)O[C@H](COC(=O)CCCCCCCCCCCCCCCC)COP(=O)([O-])OCC[N+](C)(C)C [PC 17:0_18:1]
- TIMS collisional cross section (sample type: Human plasma, ion (formula + adduct): [C43H84NO8P+HCOO] 1-): 294.5 Å²

Structure (SMILES): CCCCC/C=C\C/C=C\C/C=C\CCCCC(=O)O[C@H](COC(=O)CCCCCCCCCCCCCC)COP(=O)([O-])OCC[N+](C)(C)C [PC 15:0@_18:3]
- TIMS collisional cross section (sample type: Human plasma, ion (formula + adduct): [C41H76NO8P+HCOO] 1-): 287.1 Å²

Structure (SMILES): CCCCCCCCCCCCCCCC(=O)OC[C@H](COP(=O)([O-])OCC[N+](C)(C)C)OC(=O)CCCC(=O)O [Oxidized PC 16:0_5:0]
- TIMS collisional cross section (sample type: Mouse Liver, ion (formula + adduct): [C29H56NO10P-CH3] 1-): 240.1 Å²

Structure (SMILES): CC/C=C\C/C=C\C/C=C\C/C=C\C/C=C\C/C=C\CCC(=O)OC[C@H](COP(=O)([O-])OCC[N+](C)(C)C)OC(=O)CC/C=C\C/C=C\C/C=C\C/C=C\C/C=C\C/C=C\CC [PC 22:6_22:6]
- TIMS collisional cross section (sample type: Mouse Liver, ion (formula + adduct): [C52H80NO8P+HCOO] 1-): 304.9 Å²

Structure (SMILES): CC/C=C\C/C=C\C/C=C\C/C=C\C/C=C\C/C=C\CCC(=O)O[C@H](COC(=O)CCCCCCCCCCCCCC)COP(=O)([O-])OCC[N+](C)(C)C [PC 15:0_22:6]
- TIMS collisional cross section (sample type: Human plasma, ion (formula + adduct): [C45H78NO8P+HCOO] 1-): 294.4 Å²
- TIMS collisional cross section (sample type: Mouse Liver, ion (formula + adduct): [C45H78NO8P+HCOO] 1-): 294.4 Å²

Structure (SMILES): CC/C=C\C/C=C\C/C=C\C/C=C\C/C=C\C/C=C\CCC(=O)O[C@H](COC(=O)CCCCCCCCCCCCCCCCC)COP(=O)([O-])OCC[N+](C)(C)C [PC 18:0@_22:6]
- TIMS collisional cross section (sample type: Human plasma, ion (formula + adduct): [C48H84NO8P+HCOO] 1-): 303.4 Å²

Structure (SMILES): CCCCCCCCCCCCCCCC(=O)OCC(COP(=O)(O)OCCN)OC(=O)CCCCCCCCCCCCCCC (centres undefined) [PE 16:0_16:0]
- TIMS collisional cross section (sample type: Mouse Liver, ion (formula + adduct): [C37H74NO8P-H] 1-): 263.3 Å²

Structure (SMILES): CCCCCCCCCCCCCCCCCC(=O)O[C@H](COC(=O)CCCCCCCCCCCCC)COP(=O)([O-])OCC[N+](C)(C)C [PC 14:0_18:0]
- TIMS collisional cross section (sample type: Human plasma, ion (formula + adduct): [C40H80NO8P+HCOO] 1-): 287.7 Å²

Now from value to molecule:

- TIMS collisional cross section (sample type: Human plasma, ion (formula + adduct): [C25H39O7P-H] 1-): 211 Å²
- TIMS collisional cross section (sample type: Mouse Liver, ion (formula + adduct): [C25H39O7P-H] 1-): 211.6 Å²
Structure (SMILES): CC/C=C\C/C=C\C/C=C\C/C=C\C/C=C\C/C=C\CCC(=O)OC[C@@H](O)COP(=O)(O)O [LPA 22:6_0:0]

- TIMS collisional cross section (sample type: Human plasma, ion (formula + adduct): [C47H83O13P-H] 1-): 297.6 Å²
- TIMS collisional cross section (sample type: Mouse Liver, ion (formula + adduct): [C47H83O13P-H] 1-): 297.6 Å²
Structure (SMILES): CCCCC/C=C\C/C=C\C/C=C\C/C=C\CCCC(=O)O[C@H](COC(=O)CCCCCCCCCCCCCCCCC)COP(=O)(O)OC1C(O)C(O)C(O)[C@@H](O)C1O (some centres undefined) [PI 18:0_20:4]

- TIMS collisional cross section (sample type: Human plasma, ion (formula + adduct): [C48H80NO8P+HCOO] 1-): 298.8 Å²
- TIMS collisional cross section (sample type: Mouse Liver, ion (formula + adduct): [C48H80NO8P+HCOO] 1-): 298.8 Å²
Structure (SMILES): CC/C=C\C/C=C\C/C=C\C/C=C\C/C=C\C/C=C\CCC(=O)O[C@H](COC(=O)CCCCCCC/C=C\C/C=C\CCCCC)COP(=O)([O-])OCC[N+](C)(C)C [PC 18:2_22:6]

- TIMS collisional cross section (sample type: Human plasma, ion (formula + adduct): [C29H49O12P-H] 1-): 239.9 Å²
- TIMS collisional cross section (sample type: Mouse Liver, ion (formula + adduct): [C29H49O12P-H] 1-): 241 Å²
Structure (SMILES): CCCCC/C=C\C/C=C\C/C=C\C/C=C\CCCC(=O)OC[C@@H](O)COP(=O)(O)OC1C(O)C(O)C(O)[C@@H](O)C1O (some centres undefined) [LPI 20:4_0:0]

- TIMS collisional cross section (sample type: Human plasma, ion (formula + adduct): [C21H39O7P-H] 1-): 207.7 ± 8.1 Å²
Structure (SMILES): CCCCC/C=C\C/C=C\CCCCCCCC(=O)OC[C@@H](O)COP(=O)(O)O [LPA 18:2_0:0]

- TIMS collisional cross section (sample type: Mouse Liver, ion (formula + adduct): [C43H74NO9P-H] 1-): 290.6 Å²
Structure (SMILES): CC/C=C\C/C=C\CC(O)/C=C/C=C\C/C=C\C/C=C\CCC(=O)O[C@H](COC(=O)CCCCCCCCCCCCCCC)COP(=O)(O)OCCN (some centres undefined) [Oxidized PE 16:0_22:6@]

- TIMS collisional cross section (sample type: Human plasma, ion (formula + adduct): [C41H74NO8P-H] 1-): 289.2 Å²
- TIMS collisional cross section (sample type: Mouse Liver, ion (formula + adduct): [C41H74NO8P-CH3] 1-): 267.1 Å²
- TIMS collisional cross section (sample type: Mouse Liver, ion (formula + adduct): [C41H74NO8P-H] 1-): 272.3 Å²
Structure (SMILES): CCCCC/C=C\C/C=C\C/C=C\C/C=C\CCCC(=O)O[C@H](COC(=O)CCCCCCCCCCCC)COP(=O)([O-])OCC[N+](C)(C)C [PC 13:0@_20:4]
